Assay results: US20130029978A1, “NOVEL ARYL UREA DERIVATIVE” (MOCHIDA PHARMACEUTICAL CO., LTD., priority 2009, published 2013)

How the values were obtained:
FAAH [1] = molecular target: T1, FAAH (Homo sapiens, UniProt O00519); assay: In vitro FAAH inhibitory activity using U-937 microsomal fraction (AAMCA substrate, fluorescence); format: biochemical; settings: 6 μg/well, 120 min incubation at room temperature, read-out: FAAH Inhibitory Activity IC50 U-937 microsome
T1 construct: the U-937 microsomal fraction (final concentration of 6 μg/well) prepared in (1); endogenous in cells; host or cells: U-937 cells (microsomal fraction)
T1 sequence (O00519 1-579): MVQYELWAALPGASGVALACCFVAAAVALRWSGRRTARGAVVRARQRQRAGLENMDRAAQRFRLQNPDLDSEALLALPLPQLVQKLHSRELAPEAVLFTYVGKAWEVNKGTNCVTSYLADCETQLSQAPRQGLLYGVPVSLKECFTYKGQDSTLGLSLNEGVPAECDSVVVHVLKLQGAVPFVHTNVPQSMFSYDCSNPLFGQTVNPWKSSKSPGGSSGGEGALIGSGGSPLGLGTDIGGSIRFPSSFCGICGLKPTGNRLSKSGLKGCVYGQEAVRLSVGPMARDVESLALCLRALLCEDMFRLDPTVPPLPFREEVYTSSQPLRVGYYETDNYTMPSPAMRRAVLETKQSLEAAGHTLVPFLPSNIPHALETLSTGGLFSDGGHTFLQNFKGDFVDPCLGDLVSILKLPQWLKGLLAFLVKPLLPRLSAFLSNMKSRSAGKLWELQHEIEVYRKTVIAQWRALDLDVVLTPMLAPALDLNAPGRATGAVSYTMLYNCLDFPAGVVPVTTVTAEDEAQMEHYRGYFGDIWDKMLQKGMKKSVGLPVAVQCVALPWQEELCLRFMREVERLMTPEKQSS
Protocol: The cultured U-937 cells were harvested, and 0.33-fold volume of buffer solution (50 mmol/L HEPES-NaOH (pH 7.4), 1 mmol/L EDTA, Complete EDTA-free (Roche Diagnostics)) was added to the cells, which was suspended and homogenized. After ultrasonication, the cells were further homogenized and centrifuged (600 g, 10 mins., 4° C.) to collect the supernatant. The supernatant collected was again centrifuged (12000 g, 20 mins., 4° C.), and the supernatant was ultracentrifuged (100000 g, 60 mins., 4° C.) to collect the precipitates. The precipitates were suspended in a buffer solution (50 mmol/L HEPES-NaOH (pH 7.4), 1 mmol/L EDTA) of 5-fold volume with respect to the wet weight of the precipitates to quantify the protein level with the BCA Protein Assay (PIERCE).
(§1) In a 384 well plate (Corning), were added the dilutions of compounds to be tested in various concentrations with 30 μL of a buffer solution (50 mmol/L HEPES (pH 7.4), 1 mmol/L EDTA, 0.1% bovine serum albumin) and the U-937 microsomal fraction (final concentration of 6 μg/well) prepared in (1) or the rat brain microsomal fraction (final concentration of 4 μg/well) prepared in (2), followed by preincubation for 5 minutes at room temperature. AAMCA (SIGMA, (final concentration of 4 mmol/L) as a substrate was added thereto, and the U-937 microsomal fraction was incubated for 120 minutes and the rat brain microsomal fraction for 30 minutes, at room temperature. Before and after the incubation, fluorescence counts were measured using EnVision 2000 (Perkin Elmer) at an excitation wavelength of 355 nm with an emission wavelength of 460 nm to calculate the difference. The count of the well added with the solvent in place of the compound tested and the count of the well added with no microsome were made 0% and 100%, respectively, and the inhibitory activity of each compound tested was determined.
(§2) The FAAH inhibitory activity of the test compound was expressed by IC50 value. The compound of the present invention showing the IC50 value smaller than 0.1 μmol/L, the compound showing the IC50 value not smaller than 0.1 μmol/L and smaller than 1 μmol/L and the compound showing the IC50 value not smaller than 1 μmol/L were designated as +++, ++ and +, respectively, which are shown in TABLE 1.

FAAH [2] = molecular target: T2, FAAH (Rattus norvegicus, UniProt P97612); assay: In vitro FAAH inhibitory activity using rat brain microsomal fraction (AAMCA substrate, fluorescence); format: biochemical; settings: 4 μg/well, 30 min incubation at room temperature, read-out: FAAH Inhibitory Activity IC50 Rat brain microsome
T2 construct: the rat brain microsomal fraction (final concentration of 4 μg/well) prepared in (2); from tissue; host or cells: brain of male Sprague-Dawley rats (microsomal fraction)
T2 sequence (P97612 1-579): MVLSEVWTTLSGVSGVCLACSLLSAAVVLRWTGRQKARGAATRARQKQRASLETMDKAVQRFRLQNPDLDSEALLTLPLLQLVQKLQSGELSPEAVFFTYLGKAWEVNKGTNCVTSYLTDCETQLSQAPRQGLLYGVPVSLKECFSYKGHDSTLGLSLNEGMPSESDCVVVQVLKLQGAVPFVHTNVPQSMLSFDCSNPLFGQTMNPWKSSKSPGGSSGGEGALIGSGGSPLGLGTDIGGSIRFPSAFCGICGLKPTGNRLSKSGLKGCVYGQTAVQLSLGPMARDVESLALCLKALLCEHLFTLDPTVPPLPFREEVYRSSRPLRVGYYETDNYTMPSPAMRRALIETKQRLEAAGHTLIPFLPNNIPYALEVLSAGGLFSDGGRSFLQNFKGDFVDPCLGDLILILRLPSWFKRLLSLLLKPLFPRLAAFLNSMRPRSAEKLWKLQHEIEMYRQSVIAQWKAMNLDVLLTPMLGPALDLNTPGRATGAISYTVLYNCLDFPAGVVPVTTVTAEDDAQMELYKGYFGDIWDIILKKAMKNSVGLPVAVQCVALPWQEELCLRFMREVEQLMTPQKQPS
Protocol: Male Sprague-Dawley (SD) rats of 10 weeks old were sacrificed by decapitation and the brains were removed. To the brains was added a buffer solution (50 mmol/L HEPES (pH 8.0), 1 mmol/L EDTA, 0.32 mol/L sucrose, Complete EDTA-free (Roche Diagnostics)) of 5-fold volume with respect to the brain wet weight, which was homogenized in a Potter homogenizer. The homogenate was centrifuged (9000 g, 10 mins., 4° C.) to collect the supernatant. The supernatant was further ultracentrifuged (105000 g, 60 mins., 4° C.) to collect the precipitates. The precipitates were suspended in a buffer solution (50 mmol/L HEPES (pH 8.0), 1 mmol/L EDTA) of ¼ volume with respect to the wet weight of the precipitates to quantify the protein level with the BCA Protein Assay (PIERCE).
as §1, §2

Molecule	IC50 (FAAH [1]) [nM]	IC50 (FAAH [2]) [nM]
O=C(Nc1cccnn1)N1CCN(C2CCOc3cc(C(F)(F)F)c(F)cc32)CC1 (centres unmarked) [Example 12, N-Pyridazin-3-yl-4-[6-fluoro-7-(trifluoromethyl)-3,4-dihydro-2H-1-benzopyran-4-yl]piperazine-1-carboxamide]	100 to 1000	< 100
O=C(Nc1nccs1)N1CCN(C2CCOc3cc(C(F)(F)F)ccc32)CC1 (centres unmarked) [Example 22, N-(1,3-Thiazol-2-yl)-4-[7-(trifluoromethyl)-3,4-dihydro-2H-1-benzopyran-4-yl]piper azine-1-carboxamide]	> 1000	> 1000
O=C(Nc1cccnn1)N1CCN(C2CCOc3ccc(Oc4ccc(C(F)(F)F)cn4)cc32)CC1 (centres unmarked) [Example 5, N-Pyridazin-3-yl-4-[6-[[5-(trifluoromethyl)-2-pyridinyl]oxy]-3,4-dihydro-2H-1-benzopyran-4-yl]piperazine-1-carboxamide]	100 to 1000	100 to 1000
O=C(Nc1cccnc1)N1CCN(C2CCOc3cc(C(F)(F)F)ccc32)CC1 (centres unmarked) [Example 17, N-Pyridine-3-yl-4-[7-(trifluoromethyl)-3,4-dihydro-2H-1-benzopyran-4-yl]piperazine-1-carboxamide]	< 100	< 100
O=C(Nc1cccnn1)N1CCN(C2CCCOc3cc(C(F)(F)F)ccc32)CC1 (centres unmarked) [Example 10, N-Pyridazin-3-yl-4-[8-(trifluoromethyl)-2,3,4,5-tetrahydrobenz-1-oxepin-5-yl]piperazine-1-carboxamide]	100 to 1000	100 to 1000
O=C(Nc1ccccc1)N1CCN(C2CCOc3cc(C(F)(F)F)ccc32)C(=O)C1 (centres unmarked) [Example 15, N-Phenyl-3-yl-4-[7-(trifluoromethyl)-3,4-dihydro-2H-1-benzopyran-4-yl]-3-oxo-piperazine-1-carboxamide]	100 to 1000	100 to 1000
Cc1ccc(NC(=O)N2CCN(C3CCOc4cc(C(F)(F)F)ccc43)CC2)cn1 (centres unmarked) [Example 18, N-(6-Methyl-pyridine-3-yl)-4-[7-(trifluoromethyl)-3,4-dihydro-2H-1-benzopyran-4-yl]piperazine-1-carboxamide]	< 100	100 to 1000
O=C(Nc1cnccn1)N1CCN(C2CCOc3cc(C(F)(F)F)ccc32)CC1 (centres unmarked) [Example 52, N-(Pyrazin-2-yl)-4-[7-(trifluoromethyl)-3,4-dihydro-2H-chromen-4-yl]piperazine-1-carboxamide]	< 100	< 100
N-(6-Methoxypyridazin-2-yl)-4-[7-(trifluoromethyl)-3,4-dihydro-2H-1-benzopyran-4-yl]piperazine-1-carboxamide [Example 21]	100 to 1000	100 to 1000
O=C(Nc1cccnc1)N1CCN(C2CCOc3c2ccc(F)c3F)CC1 (centres unmarked) [Example 35, 4-(7,8-Difluoro-3,4-dihydro-2H-chromen-4-yl)-N-(pyridine-3-yl)piperazine-1-carboxamide]	< 100	< 100
O=C(Nc1ccccc1)N1CCC(c2noc3cc(F)ccc23)CC1 [Example 1, N-Phenyl-4-(6-fluoro-1,2-benzisoxazo-3-yl)piperidine-1-carboxamide]	100 to 1000	> 1000
CC1(C)CC(N2CCN(C(=O)Nc3cccnn3)CC2)c2ccc(C(F)(F)F)cc2O1 (centres unmarked) [Example 9, N-Pyridazin-3-yl-4-[2,2-dimethyl-7-(trifluoromethyl)-3,4-dihydro-2H-1-benzopyran-4-yl]piperazine-1-carboxamide]	> 1000	100 to 1000
O=C(Nc1cccnn1)N1CCC(N2CCOc3cc(C(F)(F)F)ccc32)CC1 [Example 24, N-Pyridazin-3-yl-4-[7-(trifluoromethyl)-2,3-dihydro-1,4-benzoxazin-4-yl]piperidine-1-carboxamide]	< 100	100 to 1000
